The values below come from ChEMBL document CHEMBL1201862, “PubChem BioAssay data set” (2004).

The source made the active and inactive calls. A value given as a limit tells only on which side of the number the result lay.

Test [1] concerns the target Large T antigen (Simian virus 40, UniProt P03070). The format is functional, Betapolyomavirus macacae.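 Also: Confirmatory-stage PubChem screen for compounds that inhibit SV40 T antigen.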
Test [2] concerns the target Intestinal-type alkaline phosphatase (Homo sapiens, UniProt P09923). Description: activation of human intestinal alkaline phosphatase – biochemical, dose response (AID 488873). The format is functional.
Test [3] addresses T1, Alkaline phosphatase, tissue-nonspecific isozyme (Homo sapiens, UniProt P05186).
T1 sequence (P05186 whole entry): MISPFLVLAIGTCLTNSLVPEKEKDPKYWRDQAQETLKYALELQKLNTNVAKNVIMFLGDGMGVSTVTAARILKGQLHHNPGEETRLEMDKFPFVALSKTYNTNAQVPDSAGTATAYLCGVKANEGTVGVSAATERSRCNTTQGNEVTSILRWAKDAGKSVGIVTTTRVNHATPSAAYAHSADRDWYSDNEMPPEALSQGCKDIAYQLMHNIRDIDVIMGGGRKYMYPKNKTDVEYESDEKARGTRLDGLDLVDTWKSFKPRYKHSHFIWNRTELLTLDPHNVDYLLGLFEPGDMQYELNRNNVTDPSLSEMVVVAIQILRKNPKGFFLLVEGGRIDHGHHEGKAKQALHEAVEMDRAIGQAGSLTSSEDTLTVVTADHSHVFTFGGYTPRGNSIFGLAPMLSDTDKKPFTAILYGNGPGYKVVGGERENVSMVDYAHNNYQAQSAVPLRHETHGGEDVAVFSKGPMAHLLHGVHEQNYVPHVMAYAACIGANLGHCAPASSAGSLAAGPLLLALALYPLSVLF
Description: activation of tissue-nonspecific alkaline phosphatase – biochemical, TNAP isozyme, mouse IAP uHTS hits, selectivity assay for mouse IAP activator project, dose response (AID 488880). The format is functional.

Test [4] deals with Procathepsin L (Homo sapiens, UniProt P07711).
Test [5] deals with FAD-linked sulfhydryl oxidase ALR (Homo sapiens, UniProt P55789). Description: ALR-catalysed DTT oxidation blockers – biochemical, H2O2 detection, luminescence, cherry-pick, dose response (AID 493248).
Sequence of FAD-linked sulfhydryl oxidase ALR (P55789 whole entry): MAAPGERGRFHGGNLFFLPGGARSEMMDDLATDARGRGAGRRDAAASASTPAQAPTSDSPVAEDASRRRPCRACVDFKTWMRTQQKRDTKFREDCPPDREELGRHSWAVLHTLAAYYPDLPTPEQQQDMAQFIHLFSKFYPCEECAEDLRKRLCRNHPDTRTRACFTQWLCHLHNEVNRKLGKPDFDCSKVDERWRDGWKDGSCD
The nature of test [6]: viability loss in THP-1 monocytes – THP-1 cells, cytotoxicity control for Vif-APOBEC3G degradation inhibitor project, dose response (AID 1117359). The conditions noted are these: THP-1. Format: functional.
In test [7] the target is Albumin (Bos taurus, UniProt P02769). Description: Counterscreen for inhibitors of T-cell receptor (TCR)-CD3 interaction: Fluorescence-based biochemical high throughput dose response assay to identify inhibitors of T-cell receptor (TCR)-CD3 interaction using a TAMRA-labeled BSA probe. Format: functional. A general note: The purpose of a counterscreen is to sort out artefacts and off-target activity.
Sequence of Albumin (P02769 whole entry): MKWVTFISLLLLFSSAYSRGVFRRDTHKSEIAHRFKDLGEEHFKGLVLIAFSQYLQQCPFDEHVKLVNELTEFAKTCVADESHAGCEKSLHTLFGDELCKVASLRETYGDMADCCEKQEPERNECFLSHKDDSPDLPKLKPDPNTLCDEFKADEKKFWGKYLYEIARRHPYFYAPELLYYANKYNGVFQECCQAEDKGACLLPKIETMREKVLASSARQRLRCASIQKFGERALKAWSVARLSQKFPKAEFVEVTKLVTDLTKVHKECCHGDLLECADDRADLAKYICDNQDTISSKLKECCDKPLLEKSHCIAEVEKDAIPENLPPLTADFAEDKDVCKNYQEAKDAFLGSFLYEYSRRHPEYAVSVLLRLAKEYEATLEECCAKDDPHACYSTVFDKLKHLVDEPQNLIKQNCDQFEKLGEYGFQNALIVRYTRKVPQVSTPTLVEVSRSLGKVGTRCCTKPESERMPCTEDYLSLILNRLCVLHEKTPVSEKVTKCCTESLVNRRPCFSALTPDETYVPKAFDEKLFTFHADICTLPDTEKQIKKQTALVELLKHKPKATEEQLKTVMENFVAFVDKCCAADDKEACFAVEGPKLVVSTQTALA

The target of test [8] is Intestinal-type alkaline phosphatase (Mus musculus, UniProt P24822). Description: mouse intestinal alkaline phosphatase activators, dose response, biochemical, luminescence, uHTS hits (AID 488783). The format is functional.
Sequence of Intestinal-type alkaline phosphatase (Mus musculus, UniProt P24822) (P24822 whole entry): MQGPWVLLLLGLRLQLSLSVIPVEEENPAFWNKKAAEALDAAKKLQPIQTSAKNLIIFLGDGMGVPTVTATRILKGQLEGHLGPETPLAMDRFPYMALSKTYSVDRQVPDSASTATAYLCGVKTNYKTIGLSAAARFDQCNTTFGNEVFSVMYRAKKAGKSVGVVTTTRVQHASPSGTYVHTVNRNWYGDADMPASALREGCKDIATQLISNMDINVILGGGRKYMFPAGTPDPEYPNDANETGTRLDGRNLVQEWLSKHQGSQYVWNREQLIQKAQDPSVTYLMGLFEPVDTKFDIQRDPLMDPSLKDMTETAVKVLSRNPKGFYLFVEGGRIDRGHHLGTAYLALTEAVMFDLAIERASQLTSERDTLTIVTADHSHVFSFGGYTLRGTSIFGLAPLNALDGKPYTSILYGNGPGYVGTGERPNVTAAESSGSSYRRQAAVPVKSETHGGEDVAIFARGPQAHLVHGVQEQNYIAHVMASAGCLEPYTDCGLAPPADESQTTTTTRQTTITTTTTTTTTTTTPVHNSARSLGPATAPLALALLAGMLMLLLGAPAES
The target of test [9] is T2, Aspartyl aminopeptidase (Plasmodium falciparum 3D7, UniProt Q8I2J3).
T2 sequence (Q8I2J3 whole entry): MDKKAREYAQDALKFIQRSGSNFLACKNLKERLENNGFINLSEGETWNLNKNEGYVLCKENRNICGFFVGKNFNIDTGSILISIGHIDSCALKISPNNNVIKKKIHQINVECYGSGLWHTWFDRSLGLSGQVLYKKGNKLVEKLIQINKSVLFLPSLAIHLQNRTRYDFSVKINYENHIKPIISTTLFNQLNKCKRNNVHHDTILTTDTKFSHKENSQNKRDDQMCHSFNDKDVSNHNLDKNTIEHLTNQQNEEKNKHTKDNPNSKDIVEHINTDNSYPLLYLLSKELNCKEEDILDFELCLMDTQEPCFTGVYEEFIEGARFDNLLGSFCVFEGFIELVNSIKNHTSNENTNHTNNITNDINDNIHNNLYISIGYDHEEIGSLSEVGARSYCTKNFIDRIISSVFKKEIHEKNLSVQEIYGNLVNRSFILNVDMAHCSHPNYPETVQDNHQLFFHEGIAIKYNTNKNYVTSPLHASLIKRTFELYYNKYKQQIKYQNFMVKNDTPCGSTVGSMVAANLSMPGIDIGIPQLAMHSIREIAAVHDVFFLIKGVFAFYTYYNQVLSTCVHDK

Test [10] has as its target Peroxisome proliferator-activated receptor gamma/Nuclear receptor corepressor 2 (Homo sapiens, UniProt P37231+Q9Y618). The format is functional.
The target in test [11] is Photoreceptor-specific nuclear receptor (Homo sapiens, UniProt Q9Y5X4). Format: functional.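 Also: potency for compounds that break the NR2E3 corepressor complex and count as activators.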
Sequence of Photoreceptor-specific nuclear receptor (Q9Y5X4 whole entry): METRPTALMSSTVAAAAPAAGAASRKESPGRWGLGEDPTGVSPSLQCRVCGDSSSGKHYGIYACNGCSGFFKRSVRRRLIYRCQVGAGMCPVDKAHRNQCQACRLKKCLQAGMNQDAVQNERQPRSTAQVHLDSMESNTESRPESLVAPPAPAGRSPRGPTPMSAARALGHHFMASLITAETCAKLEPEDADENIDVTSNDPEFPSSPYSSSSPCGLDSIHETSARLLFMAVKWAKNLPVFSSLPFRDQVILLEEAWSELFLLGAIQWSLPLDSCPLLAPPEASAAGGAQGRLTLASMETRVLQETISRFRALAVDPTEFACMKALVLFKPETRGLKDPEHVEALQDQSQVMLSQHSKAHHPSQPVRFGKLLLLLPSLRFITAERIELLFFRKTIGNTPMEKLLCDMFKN
The target of test [12] is T3, Neuropeptide Y receptor type 2 (Homo sapiens, UniProt P49146).
T3 sequence (P49146 whole entry): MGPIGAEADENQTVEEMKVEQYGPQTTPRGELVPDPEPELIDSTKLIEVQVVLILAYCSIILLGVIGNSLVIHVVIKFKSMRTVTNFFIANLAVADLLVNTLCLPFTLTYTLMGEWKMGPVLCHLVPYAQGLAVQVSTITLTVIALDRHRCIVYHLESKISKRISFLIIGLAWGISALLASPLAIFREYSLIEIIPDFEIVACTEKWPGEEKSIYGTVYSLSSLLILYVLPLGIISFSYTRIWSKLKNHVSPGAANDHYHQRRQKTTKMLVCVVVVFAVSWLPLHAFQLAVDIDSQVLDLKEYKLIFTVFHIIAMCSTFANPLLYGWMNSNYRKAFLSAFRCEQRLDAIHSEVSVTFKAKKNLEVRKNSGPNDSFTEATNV
The experiment in a line: Fluorescence-based counterscreen for agonists of NPY-Y1: cell-based high-throughput dose response assay for agonists of NPY-Y2. The format is functional.

Test [13] deals with HEK293. The experiment in a line: Fluorescence-based counterscreen for potentiators or agonists of NPY-Y1: cell-based high-throughput dose response assay for inhibitors of cyclic nucleotide gated ion channel (CNGC) activity. In this assay, the parental HEK293 cell line transfected with a cyclic-nucleotide gated ion channel (CNGC)-based cAMP sensor is used to measure inhibition of isoproterenol-induced CNGC …. The format is functional. The note with it: Homo sapiens.

For test [14], the target named is T4, Neuropeptide Y receptor type 1 (Homo sapiens, UniProt P25929).
T4 sequence (P25929 whole entry): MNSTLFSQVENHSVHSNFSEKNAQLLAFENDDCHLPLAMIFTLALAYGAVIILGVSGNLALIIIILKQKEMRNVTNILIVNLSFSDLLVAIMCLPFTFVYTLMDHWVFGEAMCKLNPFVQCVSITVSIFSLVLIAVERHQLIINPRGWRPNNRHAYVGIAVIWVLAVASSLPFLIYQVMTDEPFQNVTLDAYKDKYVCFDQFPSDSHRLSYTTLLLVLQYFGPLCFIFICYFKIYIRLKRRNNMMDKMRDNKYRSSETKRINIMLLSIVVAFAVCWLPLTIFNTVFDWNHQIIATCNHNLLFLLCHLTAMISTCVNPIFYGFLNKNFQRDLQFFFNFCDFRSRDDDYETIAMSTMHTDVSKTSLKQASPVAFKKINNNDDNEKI
The experiment in a line: Fluorescence-based dose response cell-based high-throughput screening assay for agonists of NPY-Y1. [Related pubchem assays: 1697 (Screening assay (NPY-Y1 agonists).), 1359 (Screening assay (NPY-Y2 potentiators or agonists).), 1304 (Screening assay (NPY-Y1 potentiators or agonists).), 1704 (Screening assay (CNGC inhibitors).), 1791 (Summary AID.)]. Format: functional.

Test [15] has as its target Melanin-concentrating hormone receptor 1 (Homo sapiens, UniProt Q99705). The experiment in a line: Fluorescence-based counterscreen for antagonists of the G-protein coupled receptor 7 (GPR7): cell-based high throughput dose response assay to identify antagonists of the melanin-concentrating hormone receptor 1 (MCHR1). Format: functional.
In test [16] the target is Transitional endoplasmic reticulum ATPase (Homo sapiens, UniProt P55072, C522A). The experiment in a line: C522A mutant p97 ATPase inhibitors, dose response, counter-screen for p97 inhibitor project, biochemical, luminescence (AID 1544).
Sequence of Transitional endoplasmic reticulum ATPase (Homo sapiens, UniProt P55072, C522A) (P55072 2-806 C522A limits assumed): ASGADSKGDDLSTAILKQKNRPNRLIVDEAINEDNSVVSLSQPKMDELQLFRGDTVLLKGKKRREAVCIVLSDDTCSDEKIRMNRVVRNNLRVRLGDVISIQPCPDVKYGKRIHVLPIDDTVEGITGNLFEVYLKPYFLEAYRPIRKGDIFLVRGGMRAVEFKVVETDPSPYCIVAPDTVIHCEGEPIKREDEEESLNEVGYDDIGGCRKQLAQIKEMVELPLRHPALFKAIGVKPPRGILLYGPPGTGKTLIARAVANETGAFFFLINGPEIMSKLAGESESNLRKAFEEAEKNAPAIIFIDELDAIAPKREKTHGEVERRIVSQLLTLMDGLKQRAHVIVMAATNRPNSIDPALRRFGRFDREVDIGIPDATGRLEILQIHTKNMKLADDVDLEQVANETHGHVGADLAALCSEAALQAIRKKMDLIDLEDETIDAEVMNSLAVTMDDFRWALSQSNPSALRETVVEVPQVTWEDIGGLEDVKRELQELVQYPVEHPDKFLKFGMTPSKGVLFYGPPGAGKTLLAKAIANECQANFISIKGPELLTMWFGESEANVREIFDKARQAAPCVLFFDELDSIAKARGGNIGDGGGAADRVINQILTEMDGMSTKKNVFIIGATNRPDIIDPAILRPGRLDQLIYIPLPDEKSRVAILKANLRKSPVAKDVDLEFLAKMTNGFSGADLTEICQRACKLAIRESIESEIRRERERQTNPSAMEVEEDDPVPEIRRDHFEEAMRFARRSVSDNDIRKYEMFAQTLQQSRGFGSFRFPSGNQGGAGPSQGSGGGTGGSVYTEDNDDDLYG
Test [17] addresses Transitional endoplasmic reticulum ATPase (Homo sapiens, UniProt P55072). Description: p97 ATPase inhibitors, dose response, biochemical (AID 1534).
In test [18] the target is T5, Microphthalmia-associated transcription factor (Homo sapiens, UniProt O75030).
T5 sequence (O75030 whole entry): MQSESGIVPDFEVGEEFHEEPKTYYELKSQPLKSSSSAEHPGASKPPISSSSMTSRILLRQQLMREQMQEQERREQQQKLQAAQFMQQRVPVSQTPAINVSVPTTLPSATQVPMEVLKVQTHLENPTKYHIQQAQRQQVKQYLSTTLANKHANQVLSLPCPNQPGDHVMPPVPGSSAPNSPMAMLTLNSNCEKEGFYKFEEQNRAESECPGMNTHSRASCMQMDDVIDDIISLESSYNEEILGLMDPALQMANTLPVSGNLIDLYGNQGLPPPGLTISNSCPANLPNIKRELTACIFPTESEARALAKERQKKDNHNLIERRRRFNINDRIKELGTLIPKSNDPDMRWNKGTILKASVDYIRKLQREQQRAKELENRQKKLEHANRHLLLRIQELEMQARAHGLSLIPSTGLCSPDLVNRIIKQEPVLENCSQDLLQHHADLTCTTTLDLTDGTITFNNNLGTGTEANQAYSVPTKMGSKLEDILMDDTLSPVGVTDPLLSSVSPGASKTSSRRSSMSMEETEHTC
Description: reducers of TRPM1 reporter luminescence, concentration series – cell-based, SK-MEL-5, cherry-picked, set 3, MITF inhibitor project, dose response (AID 493073).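 Also: SK-MEL-5 melanoma cells with luciferase driven by the MITF target TRPM1 promoter.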 Format: functional.

The target of test [19] is Cytochrome P450 2C9 (Homo sapiens, UniProt P11712). The conditions noted are these: Potency.
Sequence of Cytochrome P450 2C9 (P11712 whole entry): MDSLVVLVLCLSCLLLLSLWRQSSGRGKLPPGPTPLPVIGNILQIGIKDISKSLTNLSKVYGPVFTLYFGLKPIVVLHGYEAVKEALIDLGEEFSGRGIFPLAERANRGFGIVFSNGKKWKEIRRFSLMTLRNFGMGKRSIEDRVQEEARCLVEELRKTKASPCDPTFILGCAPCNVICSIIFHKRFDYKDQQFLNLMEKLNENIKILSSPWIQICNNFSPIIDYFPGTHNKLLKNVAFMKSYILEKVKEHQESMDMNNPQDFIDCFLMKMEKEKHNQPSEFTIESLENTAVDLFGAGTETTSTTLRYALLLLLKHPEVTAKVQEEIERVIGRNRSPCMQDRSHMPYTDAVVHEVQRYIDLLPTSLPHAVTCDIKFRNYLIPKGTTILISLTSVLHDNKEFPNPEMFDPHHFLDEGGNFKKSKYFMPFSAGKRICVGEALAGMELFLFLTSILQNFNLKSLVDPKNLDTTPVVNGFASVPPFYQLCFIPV
Test [20] deals with Protein Rev (Human immunodeficiency virus type 1 group M subtype B (isolate WMJ22)(HIV-1), UniProt P05866). Description: inhibitors of Rev protein–RRE RNA complex – biochemical, protein-RNA interaction, dose response (AID 842). Also noted: species or system Human immunodeficiency virus 1.
Sequence of Protein Rev (P05866 whole entry): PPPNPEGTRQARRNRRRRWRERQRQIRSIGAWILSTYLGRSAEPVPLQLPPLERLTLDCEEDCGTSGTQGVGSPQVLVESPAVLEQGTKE
Test [21] concerns the target T6, Heat shock factor protein 1 (Mus musculus, UniProt P38532).
T6 sequence (P38532 whole entry): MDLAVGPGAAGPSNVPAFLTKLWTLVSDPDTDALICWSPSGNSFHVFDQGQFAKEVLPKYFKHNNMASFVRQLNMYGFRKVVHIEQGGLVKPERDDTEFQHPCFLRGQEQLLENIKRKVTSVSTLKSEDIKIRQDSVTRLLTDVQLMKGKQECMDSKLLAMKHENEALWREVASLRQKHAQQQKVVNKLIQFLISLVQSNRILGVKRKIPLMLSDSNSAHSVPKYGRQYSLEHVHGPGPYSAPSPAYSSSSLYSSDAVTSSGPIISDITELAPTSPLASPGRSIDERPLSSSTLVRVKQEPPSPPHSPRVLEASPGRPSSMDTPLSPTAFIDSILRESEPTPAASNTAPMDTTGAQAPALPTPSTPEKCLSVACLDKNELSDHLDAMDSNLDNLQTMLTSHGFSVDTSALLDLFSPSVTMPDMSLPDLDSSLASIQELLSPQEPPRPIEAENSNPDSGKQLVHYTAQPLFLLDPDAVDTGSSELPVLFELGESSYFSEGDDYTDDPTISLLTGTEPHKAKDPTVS
The experiment in a line: decrease of HSF1-responsive luciferase luminescence – cell-based, NIH3T3, dose retest, confirmation (AID 2382).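 Also: NIH3T3 fibroblasts with HSF1-driven luciferase reporter stressed by proteasome inhibitor MG132; luminescence from HSF1-driven luciferase expression after 8 hours of MG132 stress.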 The format is functional.

For test [22], the target named is Cytochrome P450 3A4 (Homo sapiens, UniProt P08684).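 Also: CYP3A4 tested as one member of a cytochrome P450 panel screen.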
Sequence of Cytochrome P450 3A4 (P08684 whole entry): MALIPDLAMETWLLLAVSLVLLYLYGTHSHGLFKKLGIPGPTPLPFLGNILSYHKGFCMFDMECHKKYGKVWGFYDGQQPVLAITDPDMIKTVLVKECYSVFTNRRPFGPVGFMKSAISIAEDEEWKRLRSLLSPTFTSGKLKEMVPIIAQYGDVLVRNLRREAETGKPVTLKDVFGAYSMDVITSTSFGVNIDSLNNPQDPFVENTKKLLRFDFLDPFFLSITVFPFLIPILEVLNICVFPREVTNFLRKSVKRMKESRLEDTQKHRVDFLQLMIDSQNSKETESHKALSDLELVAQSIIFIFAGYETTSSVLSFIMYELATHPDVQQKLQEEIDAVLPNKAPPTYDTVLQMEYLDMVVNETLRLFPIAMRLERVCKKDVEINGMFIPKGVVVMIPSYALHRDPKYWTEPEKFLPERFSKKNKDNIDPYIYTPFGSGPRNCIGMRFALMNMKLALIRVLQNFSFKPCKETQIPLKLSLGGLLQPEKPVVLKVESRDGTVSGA
The target of test [23] is T7, Cytochrome P450 1A2 (Homo sapiens, UniProt P05177).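 Also: PubChem cytochrome P450 panel assay, CYP1A2 panel member.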
T7 sequence (P05177 whole entry): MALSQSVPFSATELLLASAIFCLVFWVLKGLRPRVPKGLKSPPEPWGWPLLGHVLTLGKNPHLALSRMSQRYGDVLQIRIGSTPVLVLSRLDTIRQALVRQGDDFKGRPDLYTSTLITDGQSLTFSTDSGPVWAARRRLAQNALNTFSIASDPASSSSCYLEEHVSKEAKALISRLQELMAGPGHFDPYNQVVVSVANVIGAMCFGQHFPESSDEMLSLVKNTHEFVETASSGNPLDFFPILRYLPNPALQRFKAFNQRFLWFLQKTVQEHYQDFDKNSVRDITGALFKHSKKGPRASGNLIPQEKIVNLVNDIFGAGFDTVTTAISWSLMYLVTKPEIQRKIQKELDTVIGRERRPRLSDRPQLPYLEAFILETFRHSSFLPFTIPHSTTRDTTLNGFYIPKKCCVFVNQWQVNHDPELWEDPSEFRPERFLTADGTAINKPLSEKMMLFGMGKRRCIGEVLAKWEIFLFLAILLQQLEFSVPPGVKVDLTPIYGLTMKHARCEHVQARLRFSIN

Sequence of Large T antigen (P03070 whole entry): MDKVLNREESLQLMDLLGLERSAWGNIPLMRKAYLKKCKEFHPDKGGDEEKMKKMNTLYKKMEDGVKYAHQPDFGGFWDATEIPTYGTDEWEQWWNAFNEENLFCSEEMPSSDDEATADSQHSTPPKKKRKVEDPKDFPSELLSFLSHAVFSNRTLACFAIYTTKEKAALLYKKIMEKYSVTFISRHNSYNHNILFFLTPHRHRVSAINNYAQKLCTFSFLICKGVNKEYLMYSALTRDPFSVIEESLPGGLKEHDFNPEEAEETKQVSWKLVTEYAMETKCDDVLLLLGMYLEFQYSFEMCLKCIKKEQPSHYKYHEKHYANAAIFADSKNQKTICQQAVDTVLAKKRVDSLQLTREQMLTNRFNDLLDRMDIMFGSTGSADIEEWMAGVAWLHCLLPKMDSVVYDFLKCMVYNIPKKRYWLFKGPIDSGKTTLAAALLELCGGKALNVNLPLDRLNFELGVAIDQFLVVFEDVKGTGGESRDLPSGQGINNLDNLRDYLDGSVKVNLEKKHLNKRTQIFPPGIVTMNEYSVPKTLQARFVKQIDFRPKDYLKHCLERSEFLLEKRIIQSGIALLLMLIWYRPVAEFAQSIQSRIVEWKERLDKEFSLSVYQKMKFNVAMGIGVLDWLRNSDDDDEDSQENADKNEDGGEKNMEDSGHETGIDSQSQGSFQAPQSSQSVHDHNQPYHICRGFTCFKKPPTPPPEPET
Sequence of Intestinal-type alkaline phosphatase (Homo sapiens, UniProt P09923) (P09923 whole entry): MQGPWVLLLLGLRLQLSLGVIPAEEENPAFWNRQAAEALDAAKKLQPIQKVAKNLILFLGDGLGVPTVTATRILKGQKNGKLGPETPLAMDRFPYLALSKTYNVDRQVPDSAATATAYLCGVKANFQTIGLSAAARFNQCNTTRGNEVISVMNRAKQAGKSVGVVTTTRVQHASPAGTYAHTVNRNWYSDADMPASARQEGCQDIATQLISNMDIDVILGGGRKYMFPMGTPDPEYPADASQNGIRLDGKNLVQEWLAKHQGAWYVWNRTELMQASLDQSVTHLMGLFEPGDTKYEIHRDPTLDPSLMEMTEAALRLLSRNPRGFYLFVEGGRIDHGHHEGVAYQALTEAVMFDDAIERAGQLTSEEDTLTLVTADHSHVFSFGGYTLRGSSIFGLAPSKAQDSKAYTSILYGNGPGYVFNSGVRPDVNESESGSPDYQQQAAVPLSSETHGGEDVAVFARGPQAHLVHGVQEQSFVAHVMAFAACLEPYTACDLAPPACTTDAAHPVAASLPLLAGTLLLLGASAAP

By IC50 is commonly meant the concentration that inhibits the measured activity by half. For orientation: EC50 means the concentration giving half of the maximal effect. One may read the AC50 as the concentration at which the activity in the assay is half-maximal. Usually CC50 stands for the concentration at which the toxic effect on the cells reaches its halfway point. In the case of `Oc1ccc(/C=N/N=C/c2ccc(O)c(O)c2)cc1O`, the IC50 was 1.15 µM (active) in test [1], > 59.6 µM (not active) in test [4], > 94.1 µM (inactive) in [7] and 1.75 µM (active) in [9]. In addition, the EC50 in test [2] was 27.3 µM (active); in test [3], 37.4 µM (active); in test [8], 18 µM (active). Besides, the AC50 in [5] was 0.543 µM (active). For the same compound, the CC50 in test [6] is 39.1 µM (active).
For the compound `CSc1nc(O)c(C#N)c(-c2ccccc2)n1`, the IC50 was 5.34 µM (active) in test [10] and > 39.8 µM (not active) in test [11].
In the case of `COc1ccccc1Oc1ccc(-c2cnc3ccccc3n2)cc1[N+](=O)[O-]`, the 50% effective concentration (EC50) in [12] and in test [14] was > 35.4 µM (not active) each time. In addition, the half-inhibitory concentration (IC50) in test [13] is on record as > 35.4 µM (not active).
Take `COC(=O)[C@@H](Cc1c[nH]c2ccccc12)NC(=O)CCC(=O)c1ccc(Br)cc1`: the IC50 in test [15] is 24.5 µM (not active).
In the case of `Cn1cc(C(=O)CCl)c2ccccc21`, the IC50 in test [16] and in [17] was > 50 µM (not active) in each case. The AC50 in test [18] was 8.48 µM (active).
`CC(C)(C)c1ccc(OC2C(O)COC2/C=C/C#Cc2ccccc2)cc1` (stereo not drawn): the AC50 in test [19] was 5.01 µM (inconclusive).
As to `CC[n+]1c(/C=C/Nc2ccccc2)oc2ccccc21`, the IC50 in test [20] was 5.66 µM (active). Further, the EC50 in [21] is recorded as > 195 µM (not active). The AC50 in test [22] is 25.1 µM (inconclusive); in test [23], 15.8 µM (inconclusive).
